Read-outs that look alike come from different tables or passages of the source. One block for each molecule: values may come before it.
Columns and labels:
[1] = system: Aβ40 in conditioned medium of cells stably expressing Amyloid Precursor Protein (APP); assay: In vitro BACE cell-based assay (Aβ40 sandwich ELISA); conditions: Homo sapiens, read-out: HEK cell assay IC50
Outline: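 Secreted Aβ40 was quantified by sandwich ELISA (pAb40 capture, biotinylated 6E10 detection, Europium time-resolved fluorescence). IC50 derived from percent inhibition versus concentration.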

[2] = biological target: Beta Secretase enzyme (BACE) (Homo sapiens (Human), UniProt P56817); assay: In vitro enzymatic BACE FRET assay; assay type: biochemical; conditions: read-out: BACE 1 FRET assay IC50
Outline: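 Reactions ran in 0.05 M acetate pH 4.2 with 10% DMSO final and 100 uM genapol. They were started with 50 nM peptide FRET substrate (fluorophore and quencher flanking the BACE cleavage site) and incubated one hour. Tris addition raised the pH to neutral to stop the reaction before fluorescence reading.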

[3] = system: Abeta 40 in CSF and brain; assay: In vivo inhibition of beta-secretase: Abeta 40 reduction in CSF and brain of the rat; conditions: 10 mpk (unless otherwise noted), after 4 hrs
Description: In Vivo Inhibition of Beta-Secretase
Several animal models, including mouse, rat, dog, and monkey, may be used to screen for inhibition of beta-secretase activity in vivo following administration of a test compound sample. Animals used in this invention can be wild type, transgenic, or gene knockout animals. […] A separate group of animals receive 2% hydroxypropyl methylcellulose, 1% Tween80 alone, containing no test compound, and serve as a vehicle-control group. At the end of the test period, animals are sacrificed and brain tissues, plasma or cerebrospinal fluid are collected. […] Homogenates are centrifuged at 355,000 g, 4° C. for 30 minutes. CSF or brain supernatants are then analyzed for the presence of A-beta peptide by specific sandwich ELISA assays based on ECL (Electrochemiluminescence) technology. For example, rat Abeta40 is measured using biotinylated-4G8 (Signet) as a capture antibody and Fab40 (an in-house antibody specific to the C-terminal of Abeta40) as a detection antibody.
Actual vehicles used: Oral: 2% HPMC, 1% Tween80, pH 2.2

Cathepsin D (Cat D) = Cathepsin D (Cat D) (Homo sapiens (Human), UniProt P07339); assay: In vitro enzymatic Cathepsin D (Cat D) FRET assay; assay type: biochemical; conditions: read-out: CatD IC50
Outline: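 CHO-expressed recombinant Cat D cleaves a fluorophore/quencher FRET peptide (20 nM) in 0.05 M citrate pH 3.5, 5 mM CHAPS, 10% DMSO final, over 1 h. Tris addition neutralizes pH to stop the reaction; fluorescence read at excitation 500 nm, emission 580 nm.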

Aβ in lumbar CSF = conditions: healthy volunteers, oral dosing of 30 or 90 mg; cited from earlier work
[4] = higher compound dose given for three months; cited from earlier work
CSF Aβ40 = conditions: healthy individuals, 36 h post-dose, cited from earlier work
[5] = HEK293, average IC50, HEK cell assay
[6] = average IC50, BACE enzyme assay
[7] = Abeta 40, rat CSF, read-out: % reduction of rat CSF levels at 10 pmk
[8] = Abeta 40, rat brain, read-out: % reduction of rat brain levels at 10 mpk
[9] = average IC50, cathepsin D enzyme assay

Sequence of Cathepsin D (Cat D) (P07339 65-412, species assumed): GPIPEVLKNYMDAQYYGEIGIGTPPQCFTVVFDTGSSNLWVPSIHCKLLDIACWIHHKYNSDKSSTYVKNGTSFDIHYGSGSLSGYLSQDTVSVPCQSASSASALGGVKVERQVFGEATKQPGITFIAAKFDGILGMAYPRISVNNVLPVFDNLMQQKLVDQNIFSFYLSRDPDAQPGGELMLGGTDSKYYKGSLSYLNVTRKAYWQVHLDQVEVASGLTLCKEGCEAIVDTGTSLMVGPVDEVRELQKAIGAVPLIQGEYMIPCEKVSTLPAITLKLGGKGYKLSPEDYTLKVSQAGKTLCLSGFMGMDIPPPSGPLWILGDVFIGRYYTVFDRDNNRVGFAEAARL
Sequence of Beta Secretase enzyme (BACE) (P56817 46-501): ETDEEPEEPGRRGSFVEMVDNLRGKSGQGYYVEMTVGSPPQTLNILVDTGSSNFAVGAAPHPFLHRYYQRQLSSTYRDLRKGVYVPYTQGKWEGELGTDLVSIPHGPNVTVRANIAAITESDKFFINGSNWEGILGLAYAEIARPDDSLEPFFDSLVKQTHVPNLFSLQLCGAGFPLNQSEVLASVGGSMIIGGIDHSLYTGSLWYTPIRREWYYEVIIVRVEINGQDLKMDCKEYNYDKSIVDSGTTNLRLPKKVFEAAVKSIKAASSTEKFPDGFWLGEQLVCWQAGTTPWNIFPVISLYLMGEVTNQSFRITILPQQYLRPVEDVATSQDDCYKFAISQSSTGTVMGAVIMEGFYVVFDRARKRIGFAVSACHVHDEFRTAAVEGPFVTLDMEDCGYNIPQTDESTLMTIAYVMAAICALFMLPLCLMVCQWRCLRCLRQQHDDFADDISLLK

SMILES: COc1cnc(C(=O)Nc2cc(F)c(F)c([C@]3(C)C[C@@H](C(F)(F)F)OC(N)=N3)c2)c(Cl)c1 [Example 169, N-(3-((4S,6S)-2-amino-4-methyl-6-(trifluoromethyl)-5,6-dihydro-4H-1,3-oxazin-4-yl)-4,5-difluorophenyl)-3-chloro-5-methoxypicolinamide]
- IC50 [1, 5]: 0.0089 µM
- IC50 [2, 6]: 0.037 µM
- inhibition in vivo at 10 mg/kg [3, 7]: 48%
- inhibition in vivo at 10 mg/kg [3, 8]: 46%
- IC50 (Cathepsin D (Cat D); [9]): > 400 µM

SMILES: Cc1cc(C(F)F)cnc1C(=O)Nc1cc(F)c(F)c([C@]2(C)C[C@@H](C(F)(F)F)OC(N)=N2)c1 [Example 171, N-(3-((4S,6S)-2-amino-4-methyl-6-(trifluoromethyl)-5,6-dihydro-4H-1,3-oxazin-4-yl)-4,5-difluorophenyl)-5-(difluoromethyl)-3-methylpicolinamide]
- IC50 [1, 5]: 0.017 µM
- IC50 [2, 6]: 0.043 µM
- inhibition in vivo at 10 mg/kg [3, 7]: 25%
- inhibition in vivo at 10 mg/kg [3, 8]: 10%
- IC50 (Cathepsin D (Cat D); [9]): 2060 µM

SMILES: C[C@@]1(c2cc(-c3cncnc3)c(F)cc2F)CCSC(N)=N1 [LY2811376, (S)-4-(2,4-difluoro-5-pyrimidin-5-yl-phenyl)-4-methyl-5,6-dihydro-4H-[1,3]thiazin-2-ylamine]
- Aβ reductions in lumbar CSF (Aβ in lumbar CSF): Prominent and long-lasting Aβ reductions in lumbar CSF

SMILES: C[C@@]1(c2cc(-c3cncnc3)c(F)cc2F)CCSC(N)=N1 [LY 2811376]
- rat toxicology finding [4]: damaged the pigment epithelium of the rat's eye

SMILES: CN1C(=N)N[C@](C)(c2cc(NC(=O)c3ccc(F)cn3)ccc2F)CS1(=O)=O [MK-8931]
- reduction of CSF Aβ40 concentrations (CSF Aβ40; single dose of 100 mg): 75%
- reduction of CSF Aβ40 concentrations (CSF Aβ40; single dose of 550 mg): 92%

Further lines, with some results ahead:

- IC50 ([1]; HEK293, HEK cells, average): 0.007 µM
- IC50 ([2]; average): 0.013 µM
- IC50 (Cathepsin D (Cat D); average): 515 µM
SMILES: Cc1cc(NC(=O)c2ccc(Cl)cn2)cc([C@]2(CF)C[C@@H](C(F)(F)F)OC(N)=N2)c1F [Example 224, N-(3-((4S,6S)-2-amino-4-(fluoromethyl)-6-(trifluoromethyl)-5,6-dihydro-4H-1,3-oxazin-4-yl)-4-fluoro-5-methylphenyl)-5-chloropicolinamide]
- inhibition in vivo at 10 mg/kg [3, 7]: 62%
- inhibition in vivo at 10 mg/kg [3, 8]: 51%

- IC50 ([1]; HEK293, HEK cells, average): 0.023 µM
- IC50 ([2]; average): 0.03 µM
- IC50 (Cathepsin D (Cat D); average): > 400 µM
SMILES: COc1cnc(C(=O)Nc2cc(C)c(F)c([C@]3(CF)C[C@@H](C(F)(F)F)OC(N)=N3)c2)cn1 [Example 227, N-(3-((4S,6S)-2-amino-4-(fluoromethyl)-6-(trifluoromethyl)-5,6-dihydro-4H-1,3-oxazin-4-yl)-4-fluoro-5-methylphenyl)-5-methoxypyrazine-2-carboxamide]
- inhibition in vivo at 10 mg/kg [3, 7]: 69%
- inhibition in vivo at 10 mg/kg [3, 8]: 65%

Source: US9296734B2 (AMGEN INC., priority 2013, dated 2016)
